Test results as given in the supplement of paper PMC9938120.

What was measured:
Test in all cases: drug sensitivity score (DSS3, normalised partial AUC of % inhibition dose-response) (DSS (score)); higher = more sensitive (stronger inhibition of viability); extreme values may be limits of the assay
[1] = test system: FMOC25_1 (patient-derived low-grade serous ovarian cancer cells); conditions: 72 h; library: FO4B; assay format: 2D, 384-well, CellTiter-Glo
Summary of the method: (§1)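 The drug sensitivity score is calculated as a partial area under the percent-inhibition dose-response curve, divided by the log of the upper asymptote; higher scores mean more sensitive. For this score, early-passage (under 10) patient-derived ovarian cancer cells were exposed on 384-well flat clear-bottom plates to compounds at five concentrations across a 10,000-fold range for 72 h at 37 °C, 5% CO2. Viability was read with CellTiter-Glo and processed in Breeze.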

[2] = test system: FMOC03 (patient-derived mucinous ovarian cancer cells); conditions: 72 h; library: FO5A; assay format: 2D, 384-well, CellTiter-Glo
Summary of the method: as §1

[3] = test system: FMOC09 (patient-derived high-grade serous ovarian cancer cells); conditions: 72 h; library: FO5A; assay format: 2D, 384-well, CellTiter-Glo
Summary of the method: as §1

[4] = test system: FMOC24 (patient-derived high-grade serous ovarian cancer cells); conditions: 72 h; library: FO5A; assay format: 2D, 384-well, CellTiter-Glo
Summary of the method: as §1

[5] = test system: FMOC02_3 (patient-derived low-grade serous ovarian cancer cells); conditions: 72 h; library: FO5A; assay format: 2D, 384-well, CellTiter-Glo
Summary of the method: as §1

[6] = test system: FMOC06 (patient-derived mucinous ovarian cancer cells); conditions: 72 h; library: FO5A; assay format: 2D, 384-well, CellTiter-Glo
Summary of the method: as §1

[7] = test system: FMOC14 (patient-derived high-grade serous ovarian cancer cells); conditions: 72 h; library: FO5A; assay format: 2D, 384-well, CellTiter-Glo
Summary of the method: as §1

[8] = test system: FMOC02_2 (patient-derived low-grade serous ovarian cancer cells); conditions: 72 h; library: FO5A; assay format: 2D, 384-well, CellTiter-Glo
Summary of the method: as §1

[9] = test system: FMOC25_2 (patient-derived low-grade serous ovarian cancer cells); conditions: 72 h; library: FO5A; assay format: 2D, 384-well, CellTiter-Glo
Summary of the method: as §1

[10] = test system: FMOC22 (patient-derived mucinous ovarian cancer cells); conditions: 72 h; library: FO5A; assay format: 2D, 384-well, CellTiter-Glo
Summary of the method: as §1

Structure (SMILES) | drug sensitivity score [1] | drug sensitivity score [2] | drug sensitivity score [3] | drug sensitivity score [4] | drug sensitivity score [5] | drug sensitivity score [6] | drug sensitivity score [7] | drug sensitivity score [8] | drug sensitivity score [9] | drug sensitivity score [10]
O=C1CN2Cc3c(ccc(Cl)c3Cl)N=C2N1 [Anagrelide] | 0 | 0 | 18.7 | 0 | 0 | 0.7 | 0 | 0 | 0 | 0
CC(=O)OC[C@H]1O[C@@H]([S-])[C@H](OC(C)=O)[C@@H](OC(C)=O)[C@@H]1OC(C)=O.CCP(CC)CC.[Au+] [Auranofin] | 0 | 1.3 | 3.5 | 1.1 | 1.8 | 4.1 | 5.2 | 0 | 3.8 | 3.1
Nc1ncn([C@@H]2O[C@H](CO)[C@@H](O)[C@H]2O)c(=O)n1 [Azacitidine] | 3.2 | 1.8 | 4.1 | 14.2 | 4.7 | 1.3 | 5 | 5.7 | 3 | 3.7
Cc1cc(-c2nc(-c3ccc(OC(F)(F)F)cc3)no2)nn1Cc1ccnc(N2CCN(C3CC3)CC2)c1 [BAY 87-2243] | 2.2 | 6.4 | 0 | 0 | 0 | 0 | 3.1 | 0 | 5.3 | 6
CC[C@@H]1C(=O)N(C)c2cnc(Nc3ccc(C(=O)NC4CCN(C)CC4)cc3OC)nc2N1C1CCCC1 [BI 2536] | 5.8 | 5.2 | 9.1 | 2.25 | 9.3 | 2.1 | 0.4 | 6.7 | 7.3 | 5.1
COc1c(C)cnc(Cn2cnc3c(Cl)nc(N)nc32)c1C [BIIB021] | 13 | 17.2 | 13.7 | 10.7 | 21.1 | 10 | 13.2 | 16.9 | 15.5 | 11.7
O=C(Nc1cccc(Nc2ncc(Br)c(NCCc3cnc[nH]3)n2)c1)N1CCCC1 [BX-912] | 6.2 | 2.4 | 2 | 4.65 | 7.6 | 4.4 | 0.5 | 5 | 7.6 | 2.4
O=C(/C=C/c1cccc(S(=O)(=O)Nc2ccccc2)c1)NO [Belinostat] | 10.8 | 13.6 | 6.4 | 11.4 | 10.3 | 11.9 | 16 | 12.3 | 10.5 | 9.9
CC[C@H](NC(=O)[C@H](C)NC)C(=O)N1C[C@@H](O)C[C@H]1Cc1c(-c2[nH]c3cc(F)ccc3c2C[C@@H]2C[C@H](O)CN2C(=O)[C@H](CC)NC(=O)[C@H](C)NC)[nH]c2cc(F)ccc12 [Birinapant] | 1.1 | 0 | 0 | 21.2 | 0 | 3.9 | 4.5 | 0 | 8.3 | 0
CC(C)C[C@H](NC(=O)[C@H](Cc1ccccc1)NC(=O)c1cnccn1)B(O)O [Bortezomib] | 27.2 | 28.2 | 20.4 | 30.8 | 24.9 | 26.2 | 28.5 | 28.8 | 30.1 | 28.4
COc1cc(Nc2c(C#N)cnc3cc(OCCCN4CCN(C)CC4)c(OC)cc23)c(Cl)cc1Cl [Bosutinib] | 3.7 | 9.3 | 9.2 | 7.55 | 14.1 | 5.2 | 6.6 | 14.6 | 13.2 | 6.4
Nc1cc(C(F)(F)F)c(-c2cc(N3CCOCC3)nc(N3CCOCC3)n2)cn1 [Buparlisib] | 11.5 | 8.6 | 6.7 | 2.25 | 13.3 | 8.7 | 4.2 | 11.7 | 10.8 | 6.3
CN(C)c1cc2c(cc1Sc1nc3c(N)nccc3n1CCNCC(C)(C)C)OCO2 [CUDC-305] | 12.2 | 16.1 | 9.7 | 8.05 | 13.9 | 9.8 | 9.3 | 12.9 | 15.2 | 8.9
COc1ccc(-c2nc(N3CCOCC3)c3sc(CN(C)c4ncc(C(=O)NO)cn4)cc3n2)cn1 [CUDC-907] | 29.2 | 32.8 | 18.4 | 33.7 | 33.2 | 31.2 | 31.4 | 34.3 | 29.1 | 31.1
CO[C@H]1C(=O)[C@]2(C)[C@@H](OC)C[C@H]3OC[C@@]3(OC(C)=O)[C@H]2[C@H](OC(=O)c2ccccc2)[C@]2(O)C[C@H](OC(=O)[C@H](O)[C@@H](NC(=O)OC(C)(C)C)c3ccccc3)C(C)=C1C2(C)C [Cabazitaxel] | 12 | 16 | 13.5 | 0.3 | 19.9 | 11.3 | 0 | 12.6 | 17.3 | 15.2
C=CC(=O)Nc1cc2c(Nc3ccc(F)c(Cl)c3)ncnc2cc1OCCCN1CCOCC1 [Canertinib] | 10 | 20.6 | 20.8 | 5.3 | 18.7 | 9 | 9.5 | 21.8 | 14.6 | 8
O=C(O)C1(C(=O)O)CCC1.[NH2-].[NH2-].[Pt+2] [Carboplatin] | 1.3 | 0.6 | 9.1 | 8.3 | 5 | 1.3 | 4.9 | 4.9 | 2.8 | 2.8

Structure (SMILES) | drug sensitivity score [1] | drug sensitivity score [2] | drug sensitivity score [3] | drug sensitivity score [4] | drug sensitivity score [5] | drug sensitivity score [6] | drug sensitivity score [7] | drug sensitivity score [8] | drug sensitivity score [9] | drug sensitivity score [10]
CC(C)C[C@H](NC(=O)[C@H](CCc1ccccc1)NC(=O)CN1CCOCC1)C(=O)N[C@@H](Cc1ccccc1)C(=O)N[C@@H](CC(C)C)C(=O)[C@@]1(C)CO1 [Carfilzomib] | 21.6 | 18 | 21.6 | 27.4 | 24.6 | 22.4 | 23.6 | 18.7 | 25.5 | 20.1
CCS(=O)(=O)N1CCN(c2ccc(Nc3ncc(C(N)=O)c(NC4CC4)n3)cc2)CC1 [Cerdulatinib] | 4 | 0 | 0 | 3.3 | 0 | 0 | 3.4 | 0 | 10.6 | 0
CCN(CC)CCCC(C)Nc1ccnc2cc(Cl)ccc12 (stereo not given) [Chloroquine] | 7.1 | 7.8 | 6 | 10.2 | 9.4 | 7.2 | 7.6 | 10.1 | 7 | 5.6
CC(C)[C@H]1C(=O)N[C@@H](CCCNC(=N)N)C(=O)NCC(=O)N[C@@H](CC(=O)O)C(=O)N[C@H](Cc2ccccc2)C(=O)N1C [Cilengitide] | 0 | 0.1 | 4.3 | 2.4 | 1.3 | 0 | 1.9 | 0 | 0 | 0
N.N.[Cl][Pt][Cl] [Cisplatin] | 7.3 | 4 | 16.6 | 18.6 | 9.1 | 6 | 3.7 | 9.2 | 6 | 6.3
Nc1nc(Cl)nc2c1ncn2[C@@H]1O[C@H](CO)[C@@H](O)[C@@H]1F [Clofarabine] | 8.5 | 4.1 | 7.8 | 4.9 | 13.7 | 5.3 | 0 | 8.9 | 16.5 | 10.5
CCN(CC)CCOc1ccc(C(=C(Cl)c2ccccc2)c2ccccc2)cc1 [Clomifene] | 4.7 | 7 | 5 | 9.9 | 9.1 | 5.6 | 5 | 8.2 | 7.2 | 4.8
O=C(c1ccc(F)c(F)c1Nc1ccc(I)cc1F)N1CC(O)([C@@H]2CCCCN2)C1 [Cobimetinib] | 10 | 10.3 | 6.1 | 1.8 | 13.7 | 9 | 0.1 | 13.3 | 9.2 | 7.5
COc1c(OCCCN2CCOCC2)ccc2c1N=C(NC(=O)c1cnc(N)nc1)N1CCN=C21 [Copanlisib] | 11.7 | 8.5 | 10.5 | 3.1 | 19.6 | 12.8 | 6.6 | 17.4 | 16.8 | 5.2
CC1(COc2ccc3c(c2)ncn3-c2ccc3cccc(N4CCC(N)CC4)c3n2)COC1 [Crenolanib] | 4.3 | 4.4 | 3 | 9.25 | 4.6 | 4.4 | 4.4 | 6.1 | 4.8 | 5
Nc1ccn([C@@H]2O[C@H](CO)[C@@H](O)[C@@H]2O)c(=O)n1 [Cytarabine] | 3.4 | 2.3 | 6.9 | 0.6 | 9.3 | 2.4 | 0 | 8.3 | 6.3 | 6.4
COc1cc2ncnc(Nc3ccc(F)c(Cl)c3)c2cc1NC(=O)/C=C/CN1CCCCC1 [Dacomitinib] | 7.8 | 18.2 | 16.1 | 0.3 | 18 | 5.5 | 4.6 | 20.4 | 18.6 | 1.7
Cc1c2oc3c(C)ccc(C(=O)N[C@@H]4C(=O)N[C@H](C(C)C)C(=O)N5CCC[C@H]5C(=O)N(C)CC(=O)N(C)[C@@H](C(C)C)C(=O)O[C@@H]4C)c3nc-2c(C(=O)N[C@@H]2C(=O)N[C@H](C(C)C)C(=O)N3CCC[C@H]3C(=O)N(C)CC(=O)N(C)[C@@H](C(C)C)C(=O)O[C@@H]2C)c(N)c1=O [Dactinomycin] | 23.3 | 21.7 | 16.7 | 23.2 | 27.2 | 22.9 | 21.7 | 22.1 | 28.8 | 21.5
Cn1c(=O)n(-c2ccc(C(C)(C)C#N)cc2)c2c3cc(-c4cnc5ccccc5c4)ccc3ncc21 [Dactolisib] | 22.7 | 16.2 | 14.4 | 11.1 | 23 | 15.6 | 13.1 | 22.1 | 23.2 | 13
CO[C@@H](C(=O)N1Cc2[nH]nc(NC(=O)c3ccc(N4CCN(C)CC4)cc3)c2C1)c1ccccc1 [Danusertib] | 3.1 | 4.7 | 8.7 | 4.3 | 10.1 | 4.7 | 1.4 | 5.7 | 8 | 0
Cc1nc(Nc2ncc(C(=O)Nc3c(C)cccc3Cl)s2)cc(N2CCN(CCO)CC2)n1 [Dasatinib] | 2.8 | 8.4 | 17.1 | 4.5 | 20.4 | 5 | 5.1 | 19.9 | 7.7 | 0
